# Reference: ChEMBL document CHEMBL4725268, “Anticonvulsant and analgesic in neuropathic pain activity in a group of new aminoalkanol derivatives” (Bioorg Med Chem Lett, 2020)
# Activity calls are given as the source filed them.
# Columns and labels:
# [1] = tested on: Astrocyte; assay: Cytotoxicity against mouse Astrocyte assessed as reduction in cell viability at > 25 uM measured upto 48 hrs by crystal violet staining colorimetric assay; type: cell-based
# [2] = Toxicity in ip dosed mouse assessed as motor impairment by rotarod test; type: organism-based; details: in vivo
# [3] = Toxicity in mouse assessed as lethality at 50 mg/kg, ip; type: organism-based; details: in vivo
# [4] = Genotoxicity in Salmonella typhimurium TA98 assessed as mutagenic index at 10 ug by AMES test; type: toxicity, Salmonella enterica subsp. enterica serovar Typhimurium; details: in vivo; dose 10 µg
# [5] = Genotoxicity in Salmonella typhimurium TA98 assessed as mutagenic index at 75 ug by AMES test; type: toxicity, Salmonella enterica subsp. enterica serovar Typhimurium; details: in vivo; dose 75 µg
# [6] = tested on: Astrocyte; assay: Cytotoxicity against mouse Astrocyte assessed as reduction in cell viability at 100 uM incubated for 48 hrs by trypan blue assay; type: cell-based
# [7] = Genotoxicity in Salmonella typhimurium TA98 assessed as mutagenic index at 500 ug by AMES test; type: toxicity, Salmonella enterica subsp. enterica serovar Typhimurium; details: in vivo; dose 500 µg
# [8] = Genotoxicity in Salmonella typhimurium TA98 assessed as number of revertant at 75 ug by AMES test (reference value: 8 to 8.3); type: toxicity, Salmonella enterica subsp. enterica serovar Typhimurium; details: in vivo; dose 75 µg
# [9] = Protection index, ratio of TD50 for toxicity in ip dosed mouse to ED50 for anticonvulsant activity in ip dosed mouse; type: organism-based; details: in vivo, read-out: PI
# [10] = Genotoxicity in Salmonella typhimurium TA100 assessed as mutagenic index at 1 ug by AMES test; type: toxicity, Salmonella enterica subsp. enterica serovar Typhimurium; details: in vivo; dose 1 µg
# [11] = tested on: Mus musculus; assay: Antiallodynic activity in mouse model of OXA-induced peripheral neuropathy assessed as mean latency time to nocifensive response at 15 mg/kg, ip administered after 7 days of OXA stimulation and measured after 1 hr by cold plate method (reference value: 57.64 +/- 1.267 sec); type: functional
# [12] = Genotoxicity in Salmonella typhimurium TA100 assessed as number of revertant at 75 ug by AMES test (reference value: 64.3 to 130.7); type: toxicity, Salmonella enterica subsp. enterica serovar Typhimurium; details: in vivo; dose 75 µg
# [13] = Genotoxicity in Salmonella typhimurium TA100 assessed as mutagenic index at 75 ug by AMES test; type: toxicity, Salmonella enterica subsp. enterica serovar Typhimurium; details: in vivo; dose 75 µg
# [14] = tested on: Astrocyte; assay: Cytotoxicity against mouse Astrocyte assessed as reduction in cell viability at 100 uM incubated for 24 hrs by LDH assay; type: cell-based
# [15] = Antioxidant activity assessed as DPPH radical scavenging activity at 125 to 1000 uM by microplate method; type: functional; details: dose microM 125-1000
# [16] = Genotoxicity in Salmonella typhimurium TA100 assessed as mutagenic index at 200 ug by AMES test; type: toxicity, Salmonella enterica subsp. enterica serovar Typhimurium; details: in vivo; dose 200 µg
# [17] = tested on: Mus musculus; assay: Antiallodynic activity in mouse model of OXA-induced peripheral neuropathy assessed as mean latency time to nocifensive response at 15 mg/kg, ip administered after 3 hrs of OXA stimulation and measured after 1 hr by cold plate method (reference value: 59.76 +/- 0.16 sec); type: functional
# [18] = Genotoxicity in Salmonella typhimurium TA100 assessed as mutagenic index at 10 ug by AMES test; type: toxicity, Salmonella enterica subsp. enterica serovar Typhimurium; details: in vivo; dose 10 µg
# [19] = Genotoxicity in Salmonella typhimurium TA98 assessed as number of revertant at 10 ug by AMES test (reference value: 8 to 8.3); type: toxicity, Salmonella enterica subsp. enterica serovar Typhimurium; details: in vivo; dose 10 µg
# [20] = Genotoxicity in Salmonella typhimurium TA100 assessed as number of revertant at 10 ug by AMES test (reference value: 64.3 to 130.7); type: toxicity, Salmonella enterica subsp. enterica serovar Typhimurium; details: in vivo; dose 10 µg
# [21] = Genotoxicity in Salmonella typhimurium TA98 assessed as mutagenic index at 200 ug by AMES test; type: toxicity, Salmonella enterica subsp. enterica serovar Typhimurium; details: in vivo; dose 200 µg
# [22] = in vitro; details: mouse, microsomes
# Description: Metabolic stability in mouse microsome assessed as half life
# [23] = tested on: Mus musculus; assay: Antiallodynic activity in mouse model of OXA-induced peripheral neuropathy assessed as mean paw withdrawal threshold at 15 mg/kg, ip administered after 7 days of OXA stimulation and measured after 1 hr by Von-frey method (reference value: 3.192 +/- 0.181 g); type: functional
# [24] = Genotoxicity in Salmonella typhimurium TA100 assessed as number of revertant at 200 ug by AMES test (reference value: 64.3 to 130.7); type: toxicity, Salmonella enterica subsp. enterica serovar Typhimurium; details: in vivo; dose 200 µg
# [25] = tested on: Astrocyte; assay: Cytotoxicity against human Astrocyte assessed as reduction in cell viability at 50 uM incubated for 24 hrs by MTT assay; type: cell-based
# [26] = Genotoxicity in Salmonella typhimurium TA98 assessed as number of revertant at 500 ug by AMES test (reference value: 8 to 8.3); type: toxicity, Salmonella enterica subsp. enterica serovar Typhimurium; details: in vivo; dose 500 µg
# [27] = Genotoxicity in Salmonella typhimurium TA100 assessed as number of revertant at 0.1 ug by AMES test (reference value: 64.3 to 130.7); type: toxicity, Salmonella enterica subsp. enterica serovar Typhimurium; details: in vivo; dose 0.1 µg
# [28] = Drug metabolism in mouse microsome assessed as formation of monohydroxylated metabolite; type: ADME; details: microsomes
# [29] = tested on: Mus musculus; assay: Anticonvulsant activity in ip dosed mouse assessed as protection against current-induced seizure by maximal electroshock seizure test; type: functional
# [30] = Genotoxicity in Salmonella typhimurium TA100 assessed as number of revertant at 1 ug by AMES test (reference value: 64.3 to 130.7); type: toxicity, Salmonella enterica subsp. enterica serovar Typhimurium; details: in vivo; dose 1 µg
# [31] = Genotoxicity in Salmonella typhimurium TA100 assessed as mutagenic index at 0.1 ug by AMES test; type: toxicity, Salmonella enterica subsp. enterica serovar Typhimurium; details: in vivo; dose 0.1 µg
# [32] = Genotoxicity in Salmonella typhimurium TA98 assessed as number of revertant at 200 ug by AMES test (reference value: 8 to 8.3); type: toxicity, Salmonella enterica subsp. enterica serovar Typhimurium; details: in vivo; dose 200 µg
# [33] = Genotoxicity in Salmonella typhimurium TA98 assessed as number of revertant at 750 ug by AMES test (reference value: 8 to 8.3); type: toxicity, Salmonella enterica subsp. enterica serovar Typhimurium; details: in vivo; dose 750 µg
# [34] = in vitro; details: mouse, microsomes; remark: listed apart in the source
# Description: Metabolic stability in mouse microsome assessed as intrinsic clearance
# [35] = molecular target: T1, 5-hydroxytryptamine receptor 1A (Homo sapiens, UniProt P08908); assay: Binding affinity to 5-HT1A (unknown origin)
# T1 sequence (P08908 whole entry): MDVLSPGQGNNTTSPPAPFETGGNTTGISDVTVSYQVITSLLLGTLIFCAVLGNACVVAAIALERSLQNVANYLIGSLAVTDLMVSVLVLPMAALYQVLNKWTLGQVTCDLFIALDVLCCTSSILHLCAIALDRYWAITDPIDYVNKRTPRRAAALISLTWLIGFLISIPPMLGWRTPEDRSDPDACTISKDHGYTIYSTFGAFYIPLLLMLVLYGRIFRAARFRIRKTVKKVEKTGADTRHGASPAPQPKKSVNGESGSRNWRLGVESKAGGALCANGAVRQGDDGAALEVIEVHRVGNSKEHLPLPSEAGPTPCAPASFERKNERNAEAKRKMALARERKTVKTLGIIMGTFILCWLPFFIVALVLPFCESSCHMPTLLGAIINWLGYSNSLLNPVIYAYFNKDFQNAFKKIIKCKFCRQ
# [36] = Genotoxicity in Salmonella typhimurium TA98 assessed as mutagenic index at 750 ug by AMES test; type: toxicity, Salmonella enterica subsp. enterica serovar Typhimurium; details: in vivo; dose 750 µg
# [37] = tested on: Mus musculus; assay: Antiallodynic activity in mouse model of OXA-induced peripheral neuropathy assessed as mean paw withdrawal threshold at 15 mg/kg, ip administered after 3 hrs of OXA stimulation and measured after 1 hr by Von-frey method (reference value: 3.144 +/- 0.169 g); type: functional
smiles,measurement,setting,value
Cc1cc(C)c(C)c(OCCN[C@@H]2CCCC[C@H]2O)c1 (racemic),Activity,[1],Toxic
same,TD50,[2],78.3 mg/kg
same,Activity,[3],Non-Toxic
same,Activity_index,[4],0.9
same,Activity_index,[5],0.8
same,Activity,[6],Toxic
same,Activity_index,[7],1.1
same,Activity,[8],6.3
same,selectivity ratio,[9],5
same,Activity_index,[10],1.1
same,Time,[11],9.278 s
same,Activity,[12],105
same,Activity_index,[13],1.4
same,Activity,[14],Toxic
same,Activity,[15],inactive
same,Activity_index,[16],0.7
same,Time,[17],22.333 s
same,Activity_index,[18],2.6
same,Activity,[19],7.3
same,Activity,[20],185.5
same,Activity_index,[21],0.8
same,half-life,[22],27.2 min
same,Activity,[23],2.122 g
same,Activity,[24],49
same,Activity,[25],Toxic
same,Activity,[26],8.7
same,Activity,[27],147
same,Drug metabolism,[28],Metabolite_Detected
same,ED50,[29],15.7 mg/kg
same,Activity,[30],138.3
same,Activity_index,[31],1.1
same,Activity,[32],6.7
same,Activity,[33],9.3
same,microsomal CLint,[34],128 µL/min/mg
same,Ki,[35],1010 nM
same,Activity_index,[36],1.2
same,Activity,[37],2.222 g
